From patent US4695545A, “Culture and process for producing A41030 antibiotics” (Eli Lilly and Company, priority 1984, dated 1987)
Values joined by “and” are separate entries in the source; they are usually repeats but may differ in a detail not shown here. Equal values may be shown once.

Tests used:
Bacteroides corrodens = test: MIC anaerobic bacteria, agar-dilution; format: cell-based; details: Bacteroides corrodens 1874
[1] = Electrometric titration (pKa); format: physicochemical; details: electrometric titration in 66% dimethylformamide in water
Text: Antibiotic A41030 factor A is a white, crystalline solid.

Bacteroides fragilis = test: MIC anaerobic bacteria, agar-dilution; format: cell-based
Streptococcus pyogenes = test: MIC aerobic bacteria, standard agar-dilution assay; format: cell-based; details: Streptococcus pyogenes C203, 24 hours
Clostridium difficile [2] = test: MIC anaerobic bacteria, agar-dilution; format: cell-based; details: Clostridium difficile 2994; agar-dilution (Table 9)
[3] = test system: Bacteroides thetaiotaomicron; test: MIC anaerobic bacteria, agar-dilution; format: cell-based; details: Bacteroides thetaiotaomicron 1438
Escherichia coli = test: MIC aerobic bacteria, standard agar-dilution assay; format: cell-based
[4] = test system: Staphylococcus epidermidis; test: MIC aerobic bacteria, standard agar-dilution assay; format: cell-based
Clostridium perfringens = format: cell-based; details: Clostridium perfringens 81; agar-dilution
Bacteroides vulgatis = test: MIC anaerobic bacteria, agar-dilution; format: cell-based; details: Bacteroides vulgatis 1211
Propionibacterium acnes [5] = test: MIC anaerobic bacteria, agar-dilution; format: cell-based; details: Propionibacterium acnes 79; agar-dilution (Table 9)
Fusobacterium symbiosum = test: MIC anaerobic bacteria, agar-dilution; format: cell-based; details: Fusobacterium symbiosum 1470
Haemophilus influenzae = test: MIC aerobic bacteria, standard agar-dilution assay; format: cell-based
Salmonella typhi = test: MIC aerobic bacteria, standard agar-dilution assay; format: cell-based
[6] = test system: Peptostreptococcus anaerobius; test: MIC anaerobic bacteria, agar-dilution; format: cell-based; details: Peptostreptococcus anaerobius 1428
Enterobacter cloacae = test: MIC aerobic bacteria, standard agar-dilution assay; format: cell-based
Staph. aureus = test: Experimental bacterial infection in mice, subcutaneous ED50; format: in vivo; details: two doses subcutaneously
Description: (§1) All of the A41030 factors tested have shown in vivo antimicrobial activity against experimental bacterial infections. When two doses of test compound were administered subcutaneously to mice in illustrative infections, the activity observed is measured as an ED50 value [effective dose in mg./kg. to protect fifty percent of the test animals: See Warren Wick, et al., J. Bacteriol. 81, 233-235 (1961)].

S. pyogenes [7] = test: as above; format: in vivo; details: two doses subcutaneously
Description: as §1

Klebsiella pneumoniae = test: MIC aerobic bacteria, standard agar-dilution assay; format: cell-based; details: Klebsiella pueumoniae X68, 24 hours
Propionibacterium acnes [8] = test: MIC against Propionibacterium acnes strains, 24-hour agar-dilution; format: cell-based
Text: Antibiotic A41030 factors A, B and C have been tested and found to be active against a genus of anaerobic bacteria identified as Propionibacterium acnes.

Enterobacter aerogenes = test: MIC aerobic bacteria, standard agar-dilution assay; format: cell-based; details: Enterobacter aerogenes C32, 24 hours
Citrobacter freundii = test: MIC aerobic bacteria, standard agar-dilution assay; format: cell-based; details: Citrobacter freundii CF17, 24 hours
Staphylococcus aureus = test: MIC aerobic bacteria, standard agar-dilution assay; format: cell-based
Clostridium difficile [9] = test: MIC against Clostridium difficile strains, agar-dilution; format: cell-based
Text: The A41030 antibiotic factors A, B, C, D, E, F, and G, are also active against a number of strains of Clostridium difficile, as determined by the agardilution method.

Clostridium septicum = test: MIC anaerobic bacteria, agar-dilution; format: cell-based; details: Clostridium septicum 1128
Streptococcus pneumoniae = test: MIC aerobic bacteria, standard agar-dilution assay; format: cell-based; details: Streptococcus pneumoniae Park I, 24 hours
Peptococcus prevoti = test: MIC anaerobic bacteria, agar-dilution; format: cell-based; details: Peptococcus prevoti 1281
[10] = test system: Bacteroides melaninogenicus; test: MIC anaerobic bacteria, agar-dilution; format: cell-based; details: Bacteroides melaninogenicus 2736
[11] = test system: Peptococcus asaccharolyticus; test: MIC anaerobic bacteria, agar-dilution; format: cell-based; details: Peptococcus asaccharolyticus 1302
S. pyogenes [12] = test: In vivo oral activity against S. pyogenes in mice
Serratia marcescens = test: MIC aerobic bacteria, standard agar-dilution assay; format: cell-based; details: Serratia marcescens X99, 24 hours
[13] = test system: Peptostreptococcus intermedius; test: MIC anaerobic bacteria, agar-dilution; format: cell-based; details: Peptostreptococcus intermedius 1264

A41030 factor B
MIC (Bacteroides corrodens): 64 µg/mL
pKa, first titratable group [1]: about 5.6
pKa, second titratable group [1]: ~7.5
possibly additional pKa's ([1]; stated as possible): > 10
MIC (Bacteroides fragilis; Bacteroides fragilis 111): 64 µg/mL
MIC (Bacteroides fragilis; Bacteroides fragilis 1877): 32 µg/mL
MIC (Bacteroides fragilis; Bacteroides fragilis 1936B): 32 µg/mL
MIC (Streptococcus pyogenes): 0.25 µg/mL
MIC (Clostridium difficile [2]): 32 µg/mL
MIC [3]: 32 µg/mL
MIC (Escherichia coli; Escherichia coli EC14, 24 hours): 128 µg/mL
MIC (Escherichia coli; Escherichia coli N10, 24 hours): 128 µg/mL
MIC (Escherichia coli; Escherichia coli TEM, 24 hours): 128 µg/mL
MIC ([4]; Staphylococcus epidermidis EPI1, 24 hours): 0.125 µg/mL
MIC ([4]; Staphylococcus epidermidis EPI2, 24 hours): 0.5 µg/mL
MIC (Clostridium perfringens): 0.5 µg/mL
MIC (Bacteroides vulgatis): 32 µg/mL
MIC (Propionibacterium acnes [5]): 16 µg/mL
MIC (Fusobacterium symbiosum): 1.0 µg/mL
MIC (Haemophilus influenzae; Haemophilus influenzae 251, 24 hours): 2 µg/mL
MIC (Haemophilus influenzae; Haemophilus influenzae Brun, 24 hours): 8 µg/mL
MIC (Salmonella typhi; Salmonella typhi 1335, 24 hours): > 128 µg/mL
MIC (Salmonella typhi; Salmonella typhi X514, 24 hours): > 128 µg/mL
MIC [6]: ≤ 0.25 µg/mL
MIC (Enterobacter cloacae; Enterobacter cloacae 265A, 24 hours): 128 µg/mL
MIC (Enterobacter cloacae; Enterobacter cloacae EB5, 24 hours): 128 µg/mL
ED50 (Staph. aureus): < 0.43 mg/kg
ED50 (S. pyogenes [7]): 1.4 mg/kg
MIC (Klebsiella pneumoniae): 128 µg/mL
MIC (Propionibacterium acnes [8]; P. acnes strain 44): 0.06 µg/mL
MIC (Propionibacterium acnes [8]; P. acnes strain 79): 0.06 µg/mL
MIC (Propionibacterium acnes [8]; P. acnes strain 101): 0.06 µg/mL
MIC (Propionibacterium acnes [8]; P. acnes strain 103): 0.06 µg/mL
MIC (Propionibacterium acnes [8]; P. acnes strain 104): 0.25 µg/mL
MIC (Propionibacterium acnes [8]; P. acnes strain 105): 0.06 µg/mL
MIC (Propionibacterium acnes [8]; P. acnes strain 106): 0.06 µg/mL
MIC (Propionibacterium acnes [8]; P. acnes strain 107): 0.06 µg/mL
MIC (Propionibacterium acnes [8]; P. acnes strain 5170): ≤ 0.03 µg/mL
MIC (Propionibacterium acnes [8]; P. acnes strain 5176): 0.06 µg/mL
MIC (Propionibacterium acnes [8]; P. acnes strain 5187): 0.06 µg/mL
MIC (Propionibacterium acnes [8]; P. acnes strain 5191): 0.06 µg/mL
MIC (Propionibacterium acnes [8]; P. acnes strain 5197): 0.06 µg/mL
MIC (Propionibacterium acnes [8]; P. acnes strain 5226): 0.5 µg/mL
MIC (Propionibacterium acnes [8]; P. acnes strain 5227): 0.06 µg/mL
MIC (Propionibacterium acnes [8]; P. acnes strain 5228): 0.5 µg/mL
MIC (Propionibacterium acnes [8]; P. acnes strain 5229): 0.25 µg/mL
MIC (Propionibacterium acnes [8]; P. acnes strain 5246): 0.125 µg/mL
MIC (Propionibacterium acnes [8]; P. acnes strain 5292): 0.06 µg/mL
MIC (Enterobacter aerogenes): 64 µg/mL
MIC (Citrobacter freundii): 128 µg/mL
MIC (Staphylococcus aureus; Staphylococcus aureus S13E, agar-dilution, 24 hours): 0.125 µg/mL
MIC (Staphylococcus aureus; in µg/mL): 0.125 and 0.25
MIC (Clostridium difficile [9]; Clostridium difficile 78): 0.5 µg/mL
MIC (Clostridium difficile [9]; Clostridium difficile 107B): 0.5 µg/mL
MIC (Clostridium difficile [9]; Clostridium difficile 111F): 1.0 µg/mL
MIC (Clostridium difficile [9]; Clostridium difficile 1153): 1.0 µg/mL
MIC (Clostridium difficile [9]; Clostridium difficile 2634): 1.0 µg/mL
MIC (Clostridium difficile [9]; Clostridium difficile 3424-5B): 1.0 µg/mL
MIC (Clostridium difficile [9]; Clostridium difficile 3816): 1.0 µg/mL
MIC (Clostridium difficile [9]; Clostridium difficile 3950D): 1.0 µg/mL
MIC (Clostridium difficile [9]; Clostridium difficile 6890): 1.0 µg/mL
MIC (Clostridium difficile [9]; Clostridium difficile 8484): 1.0 µg/mL
MIC (Clostridium difficile [9]; Clostridium difficile A-194): 1.0 µg/mL
MIC (Clostridium difficile [9]; Clostridium difficile A-195): 1.0 µg/mL
MIC (Clostridium difficile [9]; Clostridium difficile A-196): 1.0 µg/mL
MIC (Clostridium difficile [9]; Clostridium difficile A-279): 1.0 µg/mL
MIC (Clostridium difficile [9]; Clostridium difficile A-280): 0.5 µg/mL
MIC (Clostridium difficile [9]; Clostridium difficile A-281): 1.0 µg/mL
MIC (Clostridium difficile [9]; Clostridium difficile WAL-2112): 1.0 µg/mL
MIC (Clostridium difficile [9]; Clostridium difficile WAL-3657): 1.0 µg/mL
MIC (Clostridium difficile [9]; Clostridium difficile WAL-4268): 0.5 µg/mL
MIC (Clostridium septicum): 4 µg/mL
MIC (Streptococcus pneumoniae): 0.5 µg/mL
MIC (Peptococcus prevoti): ≤ 0.25 µg/mL
MIC [10]: 4 µg/mL
MIC [11]: ≤ 0.25 µg/mL
in vivo oral activity (S. pyogenes [12]): > 300 mg./kg.×2
MIC (Serratia marcescens): 128 µg/mL
MIC [13]: 0.5 µg/mL
